Measured values from article PMC11784839, “Monoaminergic neurotransmitters are bimodal effectors of tau aggregation” (Science Advances, 2025).

Target: tau (Homo sapiens, UniProt P10636)
Assay: MCE Phenols Library screening, tau biosensor cell seeding assay (AvZ)
Format: cell-based
Conditions: for Z repl 1 / Z Repl 2: Z score; for Z repl 1 / raw data 1: replicate 1; for Z Repl 2 / raw data 2: replicate 2; for AvZ (average z score of seeding, SDs from the mean level of seeding): 10 μM phenol in cell cultures, AD brain homogenate preincubated 16 hours, two biological replicates, positive = catalyzes seeding, negative = inhibits
[1] = average Z score of the two replicates, MCE Phenols Library screen
[2] = average puncta of the two replicates
[3] = average Z score of the two replicates, tau seeding
[4] = average Z score of two replicates, Phenols Library screen
[5] = average Z score of the two replicates, tau biosensor seeding, MCE Phenols Library screen

Chain of tau (P10636 623-695 limits assumed): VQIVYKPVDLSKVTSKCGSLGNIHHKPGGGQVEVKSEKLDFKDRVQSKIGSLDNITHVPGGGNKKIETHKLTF

Z repl 1 | Z Repl 2 | av Z [1] | av puncta [2] | raw data 1 (raw puncta) | raw data 2 (raw puncta) | raw data 1 (puncta) | raw data 2 (puncta) | av Z [3] | av puncta (average of raw data 1 and 2) | av Z [5] | AvZ (average z score of seeding, SDs from the mean level of seeding) | AvZ (average z score of seeding, SDs from the mean level of seeding) (listed as 6-Hydroxy melatonin) | Compound | av Z [4]
-0.381 | -0.64 | -0.51 | 13854.4 | – | – | 21773.2 | 5935.58 | – | – | – | – | – | COc1ccc(-c2oc3c(CCC(C)(C)O)c(O[C@@H]4O[C@H](CO)[C@@H](O)[C@H](O)[C@H]4O)cc(O)c3c(=O)c2O)cc1 [Maohuoside A] | –
0.106 | 0.25 | – | – | – | – | 27620 | 15437.3 | 0.178 | 21528.7 | – | – | – | COc1ccc(-c2coc3cc(O[C@@H]4O[C@H](CO)[C@@H](O)[C@H](O)[C@H]4O)c(OC)c(O)c3c2=O)cc1O [Iristectorin A] | –
0.708 | 0.042 | – | – | – | – | 34846.9 | 13213.7 | 0.375 | 24030.3 | – | – | – | O=c1cc(-c2ccc(O)c(O)c2)oc2cc(O)c([C@@H]3O[C@H](CO)[C@@H](O)[C@H](O)[C@H]3O)c(O)c12 [Isoorientin] | –
-0.004 | -0.903 | -0.454 | 14707.1 | 26297.7 | 3116.65 | – | – | – | – | – | – | – | O=c1c(O)c(-c2ccc(O)cc2)oc2cc(O)cc(O)c12 [Kaempferol] | –
0.42 | 0.629 | – | – | – | – | 31392.8 | 19486 | 0.525 | 25439.4 | – | – | – | COc1ccc(-c2oc3c(CC=C(C)C)c(O)cc(O)c3c(=O)c2O)cc1 [Icaritin] | –
-1.392 | -0.758 | -1.075 | – | – | – | 9642.85 | 4671.16 | – | 7157.01 | – | – | – | O=c1c(O)c(-c2ccc(O)c(O)c2)oc2cc(O)ccc12 [Fisetin] | –
-0.257 | -0.157 | -0.207 | 17173.7 | 23258.6 | 11088.8 | – | – | – | – | – | – | – | COc1cc2cc(Oc3ccc4ccc(=O)oc4c3)c(=O)oc2cc1O [Daphnoretin] | –
1.299 | 0.571 | – | – | – | – | 41947.4 | 18866.6 | – | 30407 | 0.935 | – | – | COc1cc(/C=C/c2cc(O)cc(O)c2)ccc1O [Isorhapontigenin] | –
-0.236 | -0.647 | -0.441 | 14688.3 | 23518.4 | 5858.11 | – | – | – | – | – | – | – | O=c1c2c(O)cc(O)cc2oc2c(O)ccc(O[C@@H]3O[C@H](CO)[C@@H](O)[C@H](O)[C@H]3O)c12 [Norswertianolin] | –
0.582 | -0.181 | – | – | – | – | 33332 | 10830.3 | 0.2 | 22081.1 | – | – | – | CC(C)=CCc1c(O[C@@H]2O[C@H](CO)[C@@H](O)[C@H](O)[C@H]2O)cc(O)c2c(=O)c(O[C@@H]3O[C@@H](C)[C@H](O)[C@@H](O)[C@H]3O)c(-c3ccc(O)cc3)oc12 [Epimedoside A] | –
-1.015 | -0.017 | – | 13372.8 | – | – | 14164.1 | 12581.6 | – | – | – | -0.516 | – | O=C(O)c1ccccc1O [Salicylic acid, reference compound] | –
-0.156 | -0.952 | -0.554 | 13541.2 | – | – | 24479.5 | 2602.81 | – | – | – | – | – | O=C(CCc1ccc(O)c(O)c1)NCCCNCCCCNCCCNC(=O)CCc1ccc(O)c(O)c1 [Kukoamine A] | –
-0.296 | 0.55 | – | – | – | – | 22792.7 | 18637 | 0.127 | 20714.9 | – | – | – | COc1c(O[C@@H]2O[C@H](C(=O)O)[C@@H](O)[C@H](O)[C@H]2O)cc2oc(-c3ccccc3)cc(=O)c2c1O [Oroxylin A-7-O-glucuronide] | –

Continued, compound first:

Compound | Z repl 1 | Z Repl 2 | av Z [1] | av puncta [2] | raw data 1 (raw puncta) | raw data 2 (raw puncta) | raw data 1 (puncta) | raw data 2 (puncta) | av Z [3] | av puncta (average of raw data 1 and 2) | av Z [5] | AvZ (average z score of seeding, SDs from the mean level of seeding) | AvZ (average z score of seeding, SDs from the mean level of seeding) (listed as 6-Hydroxy melatonin) | av Z [4]
COc1cc(O)c2c(=O)c(O[C@@H]3O[C@H](CO)[C@@H](O)[C@H](O)[C@H]3O)c(-c3ccc(O[C@@H]4O[C@H](CO)[C@@H](O)[C@H](O)[C@H]4O)cc3)oc2c1 [Complanatuside] | -0.533 | -0.238 | -0.385 | 15089 | 19953.5 | 10224.5 | – | – | – | – | – | – | – | –
O=c1cc(-c2ccc(O)cc2)oc2cc(O)ccc12 [7,4'-Dihydroxyflavone] | 0.712 | -0.135 | – | – | – | – | 34900.1 | 11325.8 | 0.289 | 23112.9 | – | – | – | –
Oc1cc2c(cc1O)[C@@H]1c3ccc(O)c(O)c3OC[C@]1(O)C2 [Hematoxylin] | -1.7 | -0.865 | -1.283 | – | – | – | 5936.96 | 3526.25 | – | 4731.6 | – | – | – | –
(+)-Usnic acid | 0.232 | -0.478 | – | – | – | – | 29133.2 | 7663.33 | – | 18398.3 | – | – | – | -0.123
COc1cc(-c2cc(=O)c3c(O)c(OC)c(O)cc3o2)cc(O)c1OC | 0.062 | -0.242 | – | – | – | – | 27088.2 | 10181.7 | – | 18635 | – | – | – | -0.09
O=C1CC(C(=O)O)c2c1oc(=O)c1cc(O)c(O)c(O)c21 (stereo not shown) [Brevifolincarboxylic acid] | -1.001 | -1.013 | -1.007 | – | – | – | 14330.3 | 1949.4 | – | 8139.85 | – | – | – | –
O=c1c(O)c(-c2ccc(O)c(O)c2)oc2cc(O)c(O)c(O)c12 [Quercetagetin] | -1.958 | -1.183 | -1.57 | – | – | – | 2842.17 | 132.721 | – | 1487.44 | – | – | – | –
O=C(O[C@@H]1O[C@@H]2COC(=O)c3cc(O)c(O)c(O)c3-c3c(cc(O)c(O)c3O)C(=O)O[C@H]([C@H]1O)[C@@H]2O)c1cc(O)c(O)c(O)c1 [Corilagin] | -1.842 | -1.134 | -1.488 | – | – | – | 4240.16 | 650.661 | – | 2445.41 | – | – | – | –
COc1cc2c(CCNC(C)=O)c[nH]c2cc1O [6-Hydroxymelatonin] | 0.345 | -0.35 | – | – | – | – | 30495.8 | 9022.73 | – | 19759.2 | – | -0.003 | −0.003 | –
COc1cc(OC)c2c(=O)cc(-c3ccc(O)c(O)c3)oc2c1 [5,7-Dimethoxyluteolin] | 1.798 | 1.915 | – | – | – | – | 47932.5 | 33213.9 | – | 40573.2 | 1.856 | – | – | –
CCCCCCC[C@H](O)CC(=O)CCc1ccc(O)c(OC)c1 [8-Gingerol] | 0.065 | -0.537 | – | 17076 | 27124.2 | 7027.77 | – | – | – | – | – | -0.236 | – | –
